Laboratory results as given in patent US20250368640A1 (BIOFRONT LTD, priority 2022, published 2025).

Tests used:
FLT3 = FLT3 degradation assay (western blot, MV-411 cells); assay type: cell-based, human; conditions: protein degradation, class symbol, read-out: FLT3 DC50 (nM)/Dmax (%)
Description: (§1) MV-411 cells were cultured with medium (IMDM) prior to use. Cells were then incubated with a variety of concentrations of compound. After incubation, the cells were collected and lysed. The protein concentration was determined by BCA protein assay kit from Thermo (23227). The FLT3 protein level was determined by western blots, using anti-human FLT3 monoclonal antibody from CST (3462S). Proteins were loaded into each well of the pre-casting gels and subjected to electrophoretic separation by SDS-PAGE. The protein resolved by SDS-PAGE were transferred to PVDF, blocked by 5% skim milk, and probed with anti-human FLT3 antibody or -actin antibody from CST (3700S), using standard western blotting procedure.

MEK 1/2 = MEK 1/2 degradation assay (western blot); assay type: cell-based, human; conditions: protein degradation, MV-411 or IMR32 cells
Description: MEK 1/2 Degradation Assay
as §1, with “(IMDM) and IMR32 cells were cultured with medium (MEM)” for “(IMDM)”, “anti-human MEK 1/2 polyclonal” for “anti-human FLT3 monoclonal”, “CST (9122S).” for “CST (3462S).”, “anti-human MEK1/2” for “anti-human FLT3”, “or β-actin” for “or -actin”, “CST (3700S) and COX IV antibody from CST (4850S),” for “CST (3700S),”

HPK1 [1] = target: T1, HPK1 (Homo sapiens (Human), UniProt Q92918); assay: HPK1 enzyme inhibition assay (ADP-Glo); assay type: biochemical
Description: HPK1 Enzyme Inhibition Assay
The compound was dissolved in 100% DMSO at the concentration of 10 mM. The HPK1 protein was purchased from Signal Chem (M23-11G-10). 2.5 μL per well of 2×HPK1 protein was added to assay plate containing the test compound, centrifuged at 1500 rpm for 1 minute, and then incubated at 25° C. for 60 minutes. MBP protein was purchased from Signal Chem (M42-51N) and ATP was purchased from Promega (V9102). The two were added 2.5 μL per well mixture of 2×MBP (0.2 ug/ul) and ATP (20 μM), centrifuged at 1500 rpm for 1 minute, then incubated at 25° C. for 60 minutes. Then added 5 μL of ADP-Glo from Promega (V9102) to the assay plate and depleted the unconsumed ATP for 60 minutes. Then centrifuged at 1500 rpm for 1 minute and incubated at 25° C. for 60 minutes. Finally, 10 μL of the kinase assay reagent from Promega (V9102) was added to the assay plate to convert ADP to ATP, centrifuged at 1500 rpm for 1 minute, incubate at 25° C. for 40 minutes. After 40 minutes incubation, the […] was determined. Based on the results, the IC50 value of the compound was calculated.
Target sequence in this assay (Q92918 1-346 limits assumed): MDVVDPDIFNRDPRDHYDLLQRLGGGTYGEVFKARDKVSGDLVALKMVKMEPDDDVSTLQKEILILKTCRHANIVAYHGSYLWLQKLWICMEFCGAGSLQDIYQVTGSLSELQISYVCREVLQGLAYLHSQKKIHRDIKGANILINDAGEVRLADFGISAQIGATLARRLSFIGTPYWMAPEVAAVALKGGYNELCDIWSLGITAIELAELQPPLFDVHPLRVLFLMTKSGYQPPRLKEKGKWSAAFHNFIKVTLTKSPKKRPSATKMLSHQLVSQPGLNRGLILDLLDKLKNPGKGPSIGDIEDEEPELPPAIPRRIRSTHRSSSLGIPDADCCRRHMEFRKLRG

HPK1 [2] = target: T1, HPK1; assay: HPK1 degradation assay (western blot, human PBMC); assay type: cell-based; conditions: protein degradation, human PBMC
Description: Frozen human PBMC were purchased from Shanghai OribioTech and recovered with culture medium (RMPI1640) prior to use. The cells were then incubated with a variety of concentrations of compound. After incubation, the cells were collected and lysed. The protein concentration was determined by BCA protein assay kit from Thermo (23227). The HPK1 protein level was determined by western blots, using anti-human HPK1 polyclonal antibody from CST (4472S). Proteins were loaded into each well of the pre-casting gels and subjected to electrophoretic separation by SDS-PAGE. The protein resolved by SDS-PAGE were transferred to PVDF, blocked by 5% skim milk, and probed with anti-human HPK1 antibody or β-actin antibody from CST (3700S), using standard western blotting procedure.
Target sequence in this assay (Q92918 whole entry): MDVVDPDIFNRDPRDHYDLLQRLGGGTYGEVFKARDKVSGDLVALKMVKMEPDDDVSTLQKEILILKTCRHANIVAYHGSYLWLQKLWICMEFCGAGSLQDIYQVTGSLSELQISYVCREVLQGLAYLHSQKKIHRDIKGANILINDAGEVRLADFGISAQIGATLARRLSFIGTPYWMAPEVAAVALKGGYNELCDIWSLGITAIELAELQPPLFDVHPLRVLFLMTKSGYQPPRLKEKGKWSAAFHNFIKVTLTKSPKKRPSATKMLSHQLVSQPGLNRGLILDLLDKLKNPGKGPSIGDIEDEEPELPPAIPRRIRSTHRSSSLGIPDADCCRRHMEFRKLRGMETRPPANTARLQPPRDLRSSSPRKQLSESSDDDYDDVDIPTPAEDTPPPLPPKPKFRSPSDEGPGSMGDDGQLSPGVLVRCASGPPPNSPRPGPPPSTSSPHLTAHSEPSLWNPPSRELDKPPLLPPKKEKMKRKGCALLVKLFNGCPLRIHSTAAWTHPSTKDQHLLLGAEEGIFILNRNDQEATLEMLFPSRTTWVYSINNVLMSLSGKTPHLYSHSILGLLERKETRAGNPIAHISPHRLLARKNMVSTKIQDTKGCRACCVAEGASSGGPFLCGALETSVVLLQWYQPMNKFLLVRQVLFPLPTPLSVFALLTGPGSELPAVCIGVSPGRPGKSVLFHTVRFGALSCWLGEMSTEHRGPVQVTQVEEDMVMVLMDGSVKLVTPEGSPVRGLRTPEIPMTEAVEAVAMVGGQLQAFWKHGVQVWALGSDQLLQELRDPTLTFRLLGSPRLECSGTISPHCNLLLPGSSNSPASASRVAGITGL

Aurora A [3] = target: T2, Aurora A (Homo sapiens (Human), UniProt O14965); assay: Aurora A degradation assay (western blot); assay type: cell-based; conditions: protein degradation, IMR32, Huh7 or HL-60 cells
T2 sequence (O14965 whole entry): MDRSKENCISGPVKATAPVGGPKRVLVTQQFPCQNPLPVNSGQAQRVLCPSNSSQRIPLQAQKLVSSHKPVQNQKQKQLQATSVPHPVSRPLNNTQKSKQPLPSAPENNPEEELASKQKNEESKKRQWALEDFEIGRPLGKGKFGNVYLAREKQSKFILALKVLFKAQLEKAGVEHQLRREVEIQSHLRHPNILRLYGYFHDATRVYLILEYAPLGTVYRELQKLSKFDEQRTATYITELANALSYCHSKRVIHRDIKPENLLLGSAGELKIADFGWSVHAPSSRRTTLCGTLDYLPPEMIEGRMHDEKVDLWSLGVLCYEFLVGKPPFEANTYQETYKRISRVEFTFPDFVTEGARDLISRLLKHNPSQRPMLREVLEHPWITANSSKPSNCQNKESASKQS
Description: Aurora A Degradation Assay
as §1, with “IMR32” for “MV-411”, “cultured with medium (MEM), Huh7 cells were cultured with medium (DMEM) and HL-60 cells were culture” for “cultured”, “AURKA” for “FLT3”, “(14475S).” for “(3462S).”, “β-actin” for “-actin”, “(3700S) or COX IV antibody from CST (4850S),” for “(3700S),”

Aurora A [4] = target: T2, Aurora A; assay: Aurora A enzyme inhibition assay; assay type: biochemical
Description: Aurora A Enzyme Inhibition Assay
(§2) The compound was dissolved in 100% DMSO at the concentration of 10 mM. The Aurora A protein was purchased from Carna (05-101). 10 μL per well of 2.5×Aurora A protein was added to assay plate containing the test compound, centrifuged at 1000 rpm for 1 minute, and then incubated at 25° C. for 10 minutes. Peptide 21 was purchased from GL Biochem (116370) and ATP was purchased from Promega (V9102). The two were added 15 μL per well mixture of 1.67× peptide 21 (final conc. is 3 μM) and ATP (final conc. is 14.58 μM), centrifuged at 1000 rpm for 1 minute, then incubated at 25° C. for 40 minutes. Then added 30 μL of stop buffer (100 mM HEPES pH7.5, 0.015% Brij-35, 0.2% Coating Reagent 3, 50 mM EDTA) to the assay plate and centrifuged at 1000 rpm for 1 minute. the product was determined. Based on the results, the IC50 value of the compound was calculated.

FLT3-ITD = FLT3-ITD (Homo sapiens, UniProt P36888); assay: FLT3-ITD enzyme inhibition assay; assay type: biochemical; conditions: enzyme inhibition
Chain of FLT3-ITD (P36888 whole entry, looked up, change not shown): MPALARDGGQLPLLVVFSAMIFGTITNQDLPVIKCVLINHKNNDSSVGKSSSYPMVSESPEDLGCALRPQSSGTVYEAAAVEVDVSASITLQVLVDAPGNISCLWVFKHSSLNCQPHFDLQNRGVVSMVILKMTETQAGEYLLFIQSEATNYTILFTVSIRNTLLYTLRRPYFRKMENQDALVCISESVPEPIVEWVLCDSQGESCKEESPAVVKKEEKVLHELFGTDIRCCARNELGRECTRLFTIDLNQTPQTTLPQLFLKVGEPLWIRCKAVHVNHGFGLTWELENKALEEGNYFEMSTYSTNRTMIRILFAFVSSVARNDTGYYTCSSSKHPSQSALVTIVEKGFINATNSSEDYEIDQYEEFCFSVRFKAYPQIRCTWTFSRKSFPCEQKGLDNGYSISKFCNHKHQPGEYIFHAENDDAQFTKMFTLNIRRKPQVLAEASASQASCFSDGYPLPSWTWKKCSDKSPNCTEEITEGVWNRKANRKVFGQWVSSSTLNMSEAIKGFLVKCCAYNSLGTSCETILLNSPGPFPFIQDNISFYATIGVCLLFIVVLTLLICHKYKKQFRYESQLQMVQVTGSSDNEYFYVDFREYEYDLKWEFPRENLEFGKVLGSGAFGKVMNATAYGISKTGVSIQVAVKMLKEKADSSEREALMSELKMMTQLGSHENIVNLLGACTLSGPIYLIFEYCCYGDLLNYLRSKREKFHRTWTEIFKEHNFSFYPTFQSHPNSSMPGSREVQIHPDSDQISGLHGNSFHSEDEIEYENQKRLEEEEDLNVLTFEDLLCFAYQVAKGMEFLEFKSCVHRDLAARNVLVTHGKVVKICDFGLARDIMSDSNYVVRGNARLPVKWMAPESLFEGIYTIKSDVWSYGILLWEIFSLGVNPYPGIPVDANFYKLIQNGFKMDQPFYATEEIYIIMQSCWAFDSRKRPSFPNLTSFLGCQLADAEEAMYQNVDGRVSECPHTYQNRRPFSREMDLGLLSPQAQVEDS
Description: FLT3-ITD Enzyme Inhibition Assay
as §2, with “FLT3-ITD” for “Aurora A”, “Invitrogen (PV6191).” for “Carna (05-101).”, “2.5×FLT3-ITD” for “2.5×Aurora A”, “2” for “21”, “(112394)” for “(116370)”, “97.2” for “14.58”

For `CCc1c[nH]c2ncc(-c3cccc(N4CCCN(CCN5CCN(c6cc7c(cc6F)C(=O)N(C6CCC(=O)NC6=O)C7)CC5)C4=O)c3)c(Cl)c12` (stereo not shown) [Example 7, 3-(5-(4-(2-(3-(3-(4-chloro-3-ethyl-1H-pyrrolo [2,3-b]pyridin-5-yl)phenyl)-2-oxotetrahydropyrimidin-1 (2H)-yl)ethyl)piperazin-1-yl)-6-fluoro-1-oxoisoindolin-2-yl) piperidine-2,6-dione], the DC50 (FLT3) was over 10000 nM, the “MEK 1/2 Dmax” value (MEK 1/2) was 37% and the DC50 (MEK 1/2; read-out: MEK 1/2 DC50) was 264 nM. For the same molecule, the IC50 (HPK1 [1]) was 10.5 nM, the “HPK1 Dmax” value (HPK1 [2]) was 60% and the DC50 (HPK1 [2]; read-out: HPK1 DC50) was 12 nM. For the same molecule, the “Aurora A Dmax” value (Aurora A [3]) was 50%, the DC50 (Aurora A [3]; read-out: Aurora A DC50) was 5 nM and the IC50 (Aurora A [4]) was 10.6 nM. It also gave an IC50 (FLT3-ITD) of 12.3 nM.
